Results from ChEMBL document CHEMBL1139813, “Synthesis and biological evaluation of amino-pyridines as androgen receptor antagonists for stimulating hair growth and reducing sebum production” (Bioorg Med Chem Lett, 2007).
Active and inactive are the calls of the source. The calls are words filed in the database; no cut-off is given here.

Tested on: Mus musculus
Assay: Stimulation of hair growth in C3H/HeN mouse at 3% concentration administered for 5 days, bid per week for 4 weeks
Assay type: functional, organism-based
In the case of C[C@H](c1ccccc1)N(C)c1cc(C(F)(F)F)c(C#N)cn1, the Activity is reported as “Active”.

Target: T1, Androgen receptor (Homo sapiens, UniProt P10275)
T1 sequence (P10275 whole entry): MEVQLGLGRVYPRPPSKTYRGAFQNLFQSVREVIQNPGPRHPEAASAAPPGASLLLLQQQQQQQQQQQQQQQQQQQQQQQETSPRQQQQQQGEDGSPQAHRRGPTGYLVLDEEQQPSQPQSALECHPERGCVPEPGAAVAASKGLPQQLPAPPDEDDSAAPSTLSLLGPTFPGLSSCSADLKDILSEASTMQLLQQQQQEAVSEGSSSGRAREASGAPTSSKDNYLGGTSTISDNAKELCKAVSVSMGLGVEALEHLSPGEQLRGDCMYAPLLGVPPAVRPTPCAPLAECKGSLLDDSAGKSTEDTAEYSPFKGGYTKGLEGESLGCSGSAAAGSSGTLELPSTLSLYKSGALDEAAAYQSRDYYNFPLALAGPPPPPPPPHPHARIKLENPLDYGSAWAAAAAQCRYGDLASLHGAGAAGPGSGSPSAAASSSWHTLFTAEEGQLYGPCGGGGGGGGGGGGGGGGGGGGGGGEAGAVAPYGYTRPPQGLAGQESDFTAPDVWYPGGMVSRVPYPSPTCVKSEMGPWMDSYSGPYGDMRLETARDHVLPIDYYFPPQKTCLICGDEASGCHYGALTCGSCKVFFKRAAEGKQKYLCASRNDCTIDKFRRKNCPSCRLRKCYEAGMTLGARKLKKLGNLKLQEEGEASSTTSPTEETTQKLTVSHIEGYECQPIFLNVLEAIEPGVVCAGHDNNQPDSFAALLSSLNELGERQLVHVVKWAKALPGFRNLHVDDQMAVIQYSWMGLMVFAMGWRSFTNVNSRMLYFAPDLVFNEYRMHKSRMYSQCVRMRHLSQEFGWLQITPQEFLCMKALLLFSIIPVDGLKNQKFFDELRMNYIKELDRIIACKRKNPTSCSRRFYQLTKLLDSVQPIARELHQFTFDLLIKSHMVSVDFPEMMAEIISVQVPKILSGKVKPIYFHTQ
Assay: not given
For CCC(C)N(C)c1cc(C(F)(F)F)c(C#N)cn1 (stereo not drawn), the IC50 was > 1000 nM. Molecule C[C@H](c1ccccc1)N(C)c1cc(C(F)(F)F)c(C#N)cn1 has an IC50 of 45 nM. Work on CC1CCN(c2cc(C(F)(F)F)c(C#N)cn2)CC1 yielded an IC50 of 136 nM. Molecule N#Cc1cnc(N2CCC3CCCCC3C2)cc1C(F)(F)F (stereo not drawn) has an IC50 of 260 nM. N#Cc1cnc(N2CCCCC2)cc1C(F)(F)F showed an IC50 of 422 nM. For CCCN(CCC)c1cc(C(F)(F)F)c(C#N)cn1, the IC50 was > 1000 nM. With CC(c1ccccc1)N(C)c1cc(C(F)(F)F)c(C#N)cn1 (stereo not drawn) the IC50 was 229 nM.

Tested on: Syrian golden hamster
Assay: Reduction in sebum production in syrian hamster ear model at 3% concentration administered for 5 days, bid per week for 2 weeks
Assay type: functional, Mesocricetus auratus
Design: scale not given: the % may be the effect or the level left
C[C@H](c1ccccc1)N(C)c1cc(C(F)(F)F)c(C#N)cn1 showed an Activity of 83%. Work on CC1(C)C(=O)N(c2ccc(C#N)c(C(F)(F)F)c2)C(=O)N1CCCCO [RU-58841] yielded an Activity of 92%.

Target: T1, Androgen receptor
Assay: biochemical
Description: Displacement of [3H]dihydrotestosterone from human androgen receptor expressed in Sf9 cells
CCC(C)N(C)c1cc(C(F)(F)F)c(C#N)cn1 (stereo not drawn) showed an IC50 of 7 nM. CC1CCN(c2cc(C(F)(F)F)c(C#N)cn2)CC1 gave an IC50 of 73 nM. With N#Cc1cnc(N2CCC3CCCCC3C2)cc1C(F)(F)F (stereo not drawn) the IC50 was 169 nM. Molecule N#Cc1cnc(N2CCCCC2)cc1C(F)(F)F has an IC50 of 209 nM. Molecule CCCN(CCC)c1cc(C(F)(F)F)c(C#N)cn1 has an IC50 of 78 nM. C[C@@H](c1ccccc1)N(C)c1cc(C(F)(F)F)c(C#N)cn1 gave an IC50 of 1700 nM. In the case of C[C@@H](Nc1cc(C(F)(F)F)c(C#N)cn1)c1ccccc1, the IC50 is reported as 4930 nM.

Tested on: not listed separately
Assay: Clearance in Beagle dog plasma at 0.5 mg/kg, iv
Assay type: ADME, organism-based, Canis lupus familiaris
Design: dose 0.5 mg/kg, route intravenous
For C[C@H](c1ccccc1)N(C)c1cc(C(F)(F)F)c(C#N)cn1, the clearance was 40 mL/min/kg.
